# Experimental data published in patent US6887869B2, “Mikanolide derivatives, their preparation and therapeutic uses” (Societe de Conseils de Recherches et d'Applications …, priority 2001, dated 2005).
# How the values were obtained:
# [1] = tested on: DU-145 (human prostate cancer cells); assay: Measurement of cell proliferation (WST1), DU-145; type: cell-based; details: DU-145, 96 hours treatment, read-out: IC50 inhibitory concentration, proliferation of DU-145 cell lines
# Description: (§1) DU-145 (human prostate cancer cells), HT29 (cancer of the colon) and Mia-PaCa2 (human pancreatic cancer cells) were acquired from the American Tissue Culture Collection (Rockville, Md., USA).
# (§2) Measurement of Cell Proliferation
# (§3) The cells placed in 80 μl of Dulbecco's modified Eagle medium (Gibco-BRL, Cergy-Pontoise, France) completed with 10% of foetal calf serum inactivated by heating (Gibco-BRL, Cergy-Pontoise, France), 50000 units/l of penicillin and 50 mg/l streptomycin (Gibco-BRL, Cergy-Pontoise, France), and 2 mM of glutamine (Gibco-BRL, Cergy-Pontoise, France) were seeded on a 96-well plate on day 0. The cells were treated on day 1 for 96 hours with increasing concentrations of each of the compounds to be tested. At the end of the of this period, quantification of the cell proliferation is evaluated by a calorimetric test based on the cleavage of the tetrazolium salt WST1 by mitochondrial dehydrogenases in viable cells leading to the formation of formazan (Boehringer Mannheim, Meylan, France). These tests are carried out in duplicate with 8 determinations per concentration tested. The products are solubilised in dimethylsulphoxide (DMSO) at 10^−2 M and finally used in culture with 0.5% DMSO.
# [2] = tested on: Mia-PaCa2 (human pancreatic cancer cells); assay: Measurement of cell proliferation (WST1), Mia-PaCa2; type: cell-based; details: MIA PaCa-2, Mia-Paca2, 96 hours treatment, read-out: IC50 inhibitory concentration, proliferation of Mia-Paca2 cell lines
# Description: as §1, §2, §3
IC50 [1] [µM],IC50 [2] [µM],Compound
≤ 30,≤ 30,"CN(C)CC1C(=O)OC2CC3(C)OC3C(O)C(N(C)C)C3=CC(OC3=O)C21 (stereo not drawn) [Example 2, 12-dimethylamino-3-dimethylaminomethyl-11-hydroxy-8-methyl-5,9,15-trioxatetracyclo[11.2.1.0^2,6.0^8,10]hexadec-13(16)-ene-4,14-dione]"
,≤ 30,"CC12CC3OC(=O)C(CN4CCOCC4)C3C3C=C(C(=O)O3)C(N3CCOCC3)C(O)C1O2 (stereo not drawn) [Example 4, 11-hydroxy-8-methyl-12-morpholino-3-morpholinomethyl-5,9,15-trioxatetracyclo[11.2.1.0^2,6.0^8,10]hexadec-13(16)-ene-4,14-dione]"
,≤ 30,"CC1C(=O)OC2CC3(C)OC3C(O)C(N(C)C)C3=CC(OC3=O)C21 (stereo not drawn) [Example 5, 12-dimethylamino-11-hydroxy-3,8-dimethyl-5,9,15-trioxatetracyclo[11.2.1.0^2,6.0^8,10]hexadec-13(16)-ene-4,14-dione]"
≤ 30,≤ 30,"CC1CCN(C2C3=CC(OC3=O)C3C(CC4(C)OC4C2O)OC(=O)C3C)CC1 (stereo not drawn) [Example 9, 11-hydroxy-3,8-dimethyl-12-(4-methylpiperidino)-5,9,15-trioxatetracyclo[11.2.1.0^2,6.0^8,10]hexadec-13(16)-ene-4,14-dione]"
,≤ 30,"CC1C(=O)OC2CC3(C)OC3C(O)C(N3CCCC3)C3=CC(OC3=O)C21 (stereo not drawn) [Example 10, 11-hydroxy-3,8-dimethyl-12-pyrrolidino-5,9,15-trioxatetracyclo[11.2.1.0^2,6.0^8,10]hexadec-13(16)-ene-4,14-dione]"
,≤ 30,"CC1C(=O)OC2CC3(C)OC3C(O)C(N3CCC(Cc4ccccc4)CC3)C3=CC(OC3=O)C21 (stereo not drawn) [Example 12, 12-(4-benzylpiperidino)-11-hydroxy-3,8-dimethyl-5,9,15-trioxatetracyclo[11.2.1.0^2,6.0^8,10]hexadec-13(16)-ene-4,14-dione]"
≤ 30,≤ 30,"CC1CCN(C2C3=CC(OC3=O)C3C(CC4(C)OC4C2OC(=O)c2ccccc2)OC(=O)C3C)CC1 (stereo not drawn) [Example 18, 3,8-dimethyl-12-(4-methylpiperidino)-4,14-dioxo-11-phenylcarbonyloxy-5,9,15-trioxatetracyclo[11.2.1.0^2,6.0^8,10]hexadec-13(16)-ene]"
,≤ 30,"CCOC(=O)OC1C(N2CCC(C)CC2)C2=CC(OC2=O)C2C(CC3(C)OC13)OC(=O)C2C (stereo not drawn) [Example 19, ethyl 3,8-dimethyl-12-(4-methylpiperidino)-4,14-dioxo-5,9,15-trioxatetracyclo[11.2.1.0^2,6.0^8,10]hexadec-13(16)-en-11-yl carbonate]"
,≤ 30,"CC(C)CSCC1C(=O)OC2CC3(C)OC3C(O)C(SCC(C)C)C3=CC(OC3=O)C21 (stereo not drawn) [Example 20, 11-hydroxy-12-isobutylsulphanyl-3-isobutylsulphanylmethyl-8-methyl-5,9,15-trioxatetracyclo[11.2.1.0^2,6.0^8,10]hexadec-13(16)-ene-4,14-dione]"
≤ 30,≤ 30,"CC1C(=O)OC2CC3(C)OC3C(OC(=O)C3CCCCC3)C(N(C)C)C3=CC(OC3=O)C21 (stereo not drawn) [Example 24, 12-(dimethylamino)-3,8-dimethyl-4,14-dioxo-5,9,15-trioxatetracyclo[11.2.1.0^2,6.0^8,10]hexadec-13(16)-en-11-yl cyclohexanecarboxylate]"
≤ 30,≤ 30,"CC1C(=O)OC2CC3(C)OC3C(OC(=O)c3ccc(F)cc3)C(N(C)C)C3=CC(OC3=O)C21 (stereo not drawn) [Example 25, 12-(dimethylamino)-3,8-dimethyl-4,14-dioxo-5,9,15-trioxatetracyclo[11.2.1.0^2,6.0^8,10]hexadec-13(16)-en-11-yl 4-fluorobenzoate]"
≤ 30,≤ 30,"CCCCCCC(=O)OC1C(N(C)C)C2=CC(OC2=O)C2C(CC3(C)OC13)OC(=O)C2C (stereo not drawn) [Example 27, 12-(dimethylamino)-3,8-dimethyl-4,14-dioxo-5,9,15-trioxatetracyclo[11.2.1.0^2,6.0^8,10]hexadec-13(16)-en-11-yl heptanoate]"
≤ 30,≤ 30,"CC1C(=O)OC2CC3(C)OC3C(OC(=O)c3ccc(C(F)(F)F)cc3)C(N(C)C)C3=CC(OC3=O)C21 (stereo not drawn) [Example 28, 12-(dimethylamino)-3,8-dimethyl-4,14-dioxo-5,9,15-trioxatetracyclo[11.2.1.0^2,6.0^8,10]hexadec-13(16)-en-11-yl 4-(trifluoromethyl)benzoate]"
≤ 30,≤ 30,"CC1C(=O)OC2CC3(C)OC3C(OC(=O)c3cccs3)C(N(C)C)C3=CC(OC3=O)C21 (stereo not drawn) [Example 29, 12-(dimethylamino)-3,8-dimethyl-4,14-dioxo-5,9,15-trioxatetracyclo[11.2.1.0^2,6.0^8,10]hexadec-13(16)-en-11-yl 2-thiophenecarboxylate]"
≤ 30,≤ 30,"CC1C(=O)OC2CC3(C)OC3C(OC(=O)CC(C)(C)C)C(N(C)C)C3=CC(OC3=O)C21 (stereo not drawn) [Example 30, 12-(dimethylamino)-3,8-dimethyl-4,14-dioxo-5,9,15-trioxatetracyclo[11.2.1.0^2,6.0^8,10]hexadec-13(16)-en-11-yl 3,3-dimethylbutanoate]"
≤ 30,≤ 30,"CC1C(=O)OC2CC3(C)OC3C(OC(=O)c3cc4ccccc4s3)C(N(C)C)C3=CC(OC3=O)C21 (stereo not drawn) [Example 31, 12-(dimethylamino)-3,8-dimethyl-4,14-dioxo-5,9,15-trioxatetracyclo[11.2.1.0^2,6.0^8,10]hexadec-13(16)-en-11-yl 1-benzothiophene-2-carboxylate]"
≤ 30,≤ 30,"CC1C(=O)OC2CC3(C)OC3C(OC(=O)c3ccco3)C(N(C)C)C3=CC(OC3=O)C21 (stereo not drawn) [Example 32, 12-(dimethylamino)-3,8-dimethyl-4,14-dioxo-5,9,15-trioxatetracyclo[11.2.1.0^2,6.0^8,10]hexadec-13(16)-en-11-yl 2-furoate]"
,≤ 30,"CC1C(=O)OC2CC3(C)OC3C(OC(=O)c3ccc([N+](=O)[O-])o3)C(N(C)C)C3=CC(OC3=O)C21 (stereo not drawn) [Example 33, 12-(dimethylamino)-3,8-dimethyl-4,14-dioxo-5,9,15-trioxatetracyclo[11.2.1.0^2,6.0^8,10]hexadec-13(16)-en-11-yl 5-nitro-2-furoate]"
,≤ 30,"CC1C(=O)OC2CC3(C)OC3C(OC(=O)Cc3cccs3)C(N(C)C)C3=CC(OC3=O)C21 (stereo not drawn) [Example 35, 12-(dimethylamino)-3,8-dimethyl-4,14-dioxo-5,9,15-trioxatetracyclo[11.2.1.0^2,6.0^8,10]hexadec-13(16)-en-11-yl 2-thienylacetate]"
,≤ 30,"CC1C(=O)OC2CC3(C)OC3C(OC(=O)COc3ccccc3)C(N(C)C)C3=CC(OC3=O)C21 (stereo not drawn) [Example 36, 12-(dimethylamino)-3,8-dimethyl-4,14-dioxo-5,9,15-trioxatetracyclo[11.2.1.0^2,6.0^8,10]hexadec-13(16)-en-11-yl phenoxyacetate]"
,≤ 30,"CC1C(=O)OC2CC3(C)OC3C(OC(=O)Nc3ccc(C(C)(C)C)cc3)C(N(C)C)C3CC(OC3=O)C21 (stereo not drawn) [Example 37, 8-(dimethylamino)-3,10a-dimethyl-2,6-dioxodecahydro-4,7-methenofuro[3,2-c]oxireno[f]oxacycloundecin-9-yl 4-tert-butylphenylcarbamate]"
≤ 30,≤ 30,"COc1ccccc1NC(=O)OC1C(N(C)C)C2CC(OC2=O)C2C(CC3(C)OC13)OC(=O)C2C (stereo not drawn) [Example 39, 8-(dimethylamino)-3,10a-dimethyl-2,6-dioxodecahydro-4,7-methenofuro[3,2-c]oxireno[f]oxacycloundecin-9-yl 2-methoxyphenylcarbamate]"
≤ 30,≤ 30,"CSc1ccccc1NC(=O)OC1C(N(C)C)C2CC(OC2=O)C2C(CC3(C)OC13)OC(=O)C2C (stereo not drawn) [Example 40, 8-(dimethylamino)-3,10a-dimethyl-2,6-dioxodecahydro-4,7-metheno-furo[3,2-c]oxireno[f]oxacycloundecin-9-yl 2(methylthio)phenylcarbamate]"
≤ 30,≤ 30,"CCOc1ccccc1NC(=O)OC1C(N(C)C)C2CC(OC2=O)C2C(CC3(C)OC13)OC(=O)C2C (stereo not drawn) [Example 41, 8-(dimethylamino)-3,10a-dimethyl-2,6-dioxodecahydro-4,7-methenofuro[3,2-c]oxireno[f]oxacycloundecin-9-yl 2-ethoxyphenylcarbamate]"
≤ 30,≤ 30,"CC1C(=O)OC2CC3(C)OC3C(OC(=O)Nc3ccsc3)C(N(C)C)C3CC(OC3=O)C21 (stereo not drawn) [Example 42, 8-(dimethylamino)-3,10a-dimethyl-2,6-dioxodecahydro-4,7-methenofuro[3,2-c]oxireno[f]oxacycloundecin-9-yl thien-3-ylcarbamate]"
≤ 30,≤ 30,"CC1C(=O)OC2CC3(C)OC3C(OC(=O)Nc3csc4ccccc34)C(N(C)C)C3CC(OC3=O)C21 (stereo not drawn) [Example 43, 8-(dimethylamino)-3,10a-dimethyl-2,6-dioxodecahydro-4,7-methenofuro[3,2-c]oxireno[f]oxacycloundecin-9-yl 1-benzothien-3-ylcarbamate]"
